Assays:
human CIC-1 channels = target: T1, human CIC-1 channels (Homo sapiens, UniProt P35523); test: Automated patch-clamp on human CIC-1 expressed in CHO cells; assay type: cell-based; settings: compound added to the intracellular solution vs vehicle control patches; positive shift reflects CIC-1 inhibition
T1 construct: host or cells: CHO (Chinese hamster ovary) cells
Description: The investigatory goal of these experiments was to evaluate how compounds affect the open probability and current amplitude of human CIC-1 channels expressed in CHO cells. Experiments were performed using an automated patch clamp system that allowed high throughput testing of whole cell patches together with both intracellular and extracellular addition of compound.
Automated whole cell patch clamp experiments were performed with the Qpatch 16 system (Sophion Bioscience, Ballerup, Denmark) at room temperature. Data acquisition and analysis were performed in the Qassay software (ver. 5.6, Odense).
To evoke CIC-1 currents in whole cell patches, the membrane potential was initially stepped from a holding potential of −30 mV to +60 mV for 100 ms and then to various test voltages (sweeps) ranging from +120 mV to −140 mV in steps of 20 mV for 300 ms. To obtain tail currents, the membrane potential was stepped to −100 mV after each test voltage for 300 ms and then relaxed to −30 mV for 2 sec between sweeps (FIG. 3). I/V relationships for whole cell instant and steady state current amplitudes were obtained by plotting average current densities at the beginning and at the end of the 300 ms step against the membrane potential (FIG. 4).
In order to determine the relative overall open probability (P0), the instantaneous tail currents were normalized to the maximal tail current obtained following the most positive voltage step and plotted against the test voltage. Plots of normalized tail currents from each whole cell patch were then fitted to a Boltzmann function allowing determination of half activation voltages (V1/2, FIG. 5).
For automated patch clamp experiments extracellular solutions contained: 2 mM CaCl2, 1 mM MgCl2, 10 mM HEPES, 4 mM KCl, 145 mM NaCl, 10 mM Glucose, pH adjusted to 7.4 with NaOH (2 M). Osmolality adjusted to ˜320 using sucrose.
Intracellular solutions contained: 80 mM CsF, 60 mM CsCl, 5/1 mM KOH/EGTA, 10 mM HEPES, 10 mM NaCl, pH adjusted to 7.2 with NaOH (2 M). Osmolality adjusted to ˜320 mOsm using sucrose.
Cells used in patch clamp experiments were Chinese hamster ovary cells (CHO) constitutively expressing human CIC-1 channels. The amino acid sequence encoded by the cDNA used to create this cell line was identical to the translated sequence for GenBank accession number NM_000083.2. Cells were produced by Charles River (Catalogue CT6175, Cleveland Ohio, USA) in a cryopreserved format. Experiments were performed on the cells directly after thawing (3×10^6 cells used in each experiment).
To evaluate the compound effect on CIC-1, when applied directly to the intracellular side of the cell membrane, the half activation voltage, V1/2, was determined from whole cell patches with compound added to the intracellular solution and then compared to V1/2 determined from control cell patches with only vehicle added to the intracellular solution. Additionally, the effect of extracellular added compound was evaluated by determine V1/2 and steady state current amplitudes before and after exchanging the extracellular solution to contain compound.
The difference in half activation voltage of CIC-1 channels, […]V1/2, was determined as the difference between the cell patches treated intracellularly with compound and control cells patches and is reported in Table 4 below. A positive shift in […]V1/2 is reflecting CIC-1 channel inhibition by the tested compound. P-values of <0.05 is considered significant.

Lewis rats = test: In situ muscle contractile characteristics: isometric hindlimb force under cisatracurium infusion; assay type: in vivo, rat; settings: 21.5 mg/kg i.v.; 12 Hz; 3 experiments
Description: Isometric hindlimb force was measured in 12-week old female Lewis rats in the presence and absence of compound.
Rats were placed under anesthesia with isoflurane (2-4%), intubated and subsequently connected to a micro ventilator (Microvent 1, Hallowell EMC, US). Two stimulation electrodes were inserted through the skin to stimulate the sciatic nerve. A small incision was made proximal to the ankle, to expose the Achilles tendon, which was tied by cotton string, and connected to a force transducer (Fort250, World Precision Instruments) with adjustable position (Vernier control). The Achilles tendon was then cut distal to the attached cotton string. […]
Muscle contractile properties were assessed by applying an electrical current (under supramaximal voltage conditions) to the nerve and recording the force generated by the muscle. The muscle was stretched until maximal force was obtained, when assessed by 2 Hz stimulation. Isometric force was measured every 30 seconds at 12 Hz (Twitch), 10 pulses, and at every 5 minutes at 80 Hz (Tetanic) for 1 second (80 pulses). […] The effect of test article was assessed on its ability to increase force generated from the stimulation pattern applied. The effect was assessed in the ability to increase force per se (tetanic, 80 Hz, stimulation), and the ratio between individual twitch peaks (12 Hz stimulation). […]

[1] = test system: isolated rat soleus muscles; test: Recovery of nerve-stimulated force in isolated rat soleus muscles exposed to sub-maximal tubocurarine; settings: Rattus norvegicus, 40 min; read-out: 50 μM % change after addition
Description: Experiments were performed using rat soleus muscles from either young (4-wk-old) or adult Wistar rats (12-14-week-old). Animal handling, killing and isolation of muscle is described elsewhere All experiments were performed using normal Krebs-Ringer bicarbonate solution (NKR). In solutions with elevated Mg^2+, MgCl2 was added to NKR-solution causing minor increases in osmolarity and ionic strength. In solutions with elevated K^+, 4 mM NaCl was replaced by 4 mM KCl in the NKR.
In all contraction experiments, isometric force production was determined and force produced during contractions was quantified by measuring the integral of the force response (AUC). Stimulation and force recordings have been described elsewhere. […] In these latter experiments, extracellular recordings of action potentials (M-waves) could be measured without temporal overlap with stimulation artefacts.
The aim was to find compounds that by inhibition of CIC-1 channels can recover nerve-stimulated force under conditions of fatigue including conditions where fatigue is caused by compromised neuromuscular transmission. Neuromuscular transmission dysfunction can develop because of both pre- and/or post-synaptic complications in connection with a disorder or as part of neuromuscular blockade during/after surgery. In the initial series of drug testing, experiments were performed with isolated muscles in the presence of sub-maximal ACh receptor antagonist tubocurarine. Since the inclusion of tubocurarine caused a partial loss of neuromuscular transmission this experiment mimics the conditions in myasthenia gravis and neuromuscular blockade. To mimic conditions with pre-synaptic complication (Lambert Eaton syndrome, motor neuron disorder, polyneuropathy) the intact nerve-muscle preparations were incubated at elevated extracellular Mg^2+, which is known to suppress release of ACh from nerve terminals of motor neurons.
To identify CIC-1 inhibitors that could be used for treatment of neuromuscular disorders we repeated the experiment shown in FIG. 2A but instead of adding 9-AC we added the compounds of interest in different concentrations within the range from 10 to 500 μM. […] For comparison with the muscle only exposed to tubocurarine (grey trace), the two traces have been overlaid. […] For comparison, muscles only exposed to tubocurarine have been included. The dotted line indicates the recovery of force with C8 when compared to the force production before its addition. This value was used in Table 1 for evaluation of the efficacy of the different compounds in recovering force.

CIC-1 ion channels = target: T2, CIC-1 ion channels (Rattus norvegicus, UniProt P35524); test: Resting membrane conductance (Gm), three-electrode technique, rat muscle: Kd for CIC-1 inhibition; assay type: cell-based; settings: concentration that reduced Gm by 50%
T2 construct: from tissue; host or cells: soleus muscle of adult (12-14 week old) Wistar rats
T2 sequence (P35524 1-994): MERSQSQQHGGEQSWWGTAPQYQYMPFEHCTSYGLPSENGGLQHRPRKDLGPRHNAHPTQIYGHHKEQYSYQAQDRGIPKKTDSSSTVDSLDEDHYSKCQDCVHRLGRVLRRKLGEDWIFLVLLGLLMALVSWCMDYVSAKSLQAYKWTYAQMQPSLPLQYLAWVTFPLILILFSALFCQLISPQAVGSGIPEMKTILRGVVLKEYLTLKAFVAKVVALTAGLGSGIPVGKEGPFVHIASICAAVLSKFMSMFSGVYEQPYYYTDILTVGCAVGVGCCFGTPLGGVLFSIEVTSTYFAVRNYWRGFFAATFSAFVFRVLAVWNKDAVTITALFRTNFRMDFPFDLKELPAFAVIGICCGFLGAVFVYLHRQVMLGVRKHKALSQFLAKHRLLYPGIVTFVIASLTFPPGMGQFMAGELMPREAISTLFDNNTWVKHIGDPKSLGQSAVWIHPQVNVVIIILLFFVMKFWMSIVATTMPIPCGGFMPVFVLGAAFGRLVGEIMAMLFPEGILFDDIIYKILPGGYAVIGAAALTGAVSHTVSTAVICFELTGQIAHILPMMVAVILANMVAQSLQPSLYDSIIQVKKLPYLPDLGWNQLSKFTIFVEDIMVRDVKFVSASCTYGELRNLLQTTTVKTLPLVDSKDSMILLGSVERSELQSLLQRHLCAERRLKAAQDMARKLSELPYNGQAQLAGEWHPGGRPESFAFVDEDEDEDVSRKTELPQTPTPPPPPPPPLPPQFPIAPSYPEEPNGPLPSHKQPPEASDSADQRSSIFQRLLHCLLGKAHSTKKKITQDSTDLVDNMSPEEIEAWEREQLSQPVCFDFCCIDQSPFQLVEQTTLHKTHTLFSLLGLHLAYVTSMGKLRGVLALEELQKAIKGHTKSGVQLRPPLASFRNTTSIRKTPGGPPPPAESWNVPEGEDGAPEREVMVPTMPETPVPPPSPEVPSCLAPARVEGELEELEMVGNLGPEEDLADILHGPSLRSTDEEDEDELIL

T1 sequence (P35523 whole entry): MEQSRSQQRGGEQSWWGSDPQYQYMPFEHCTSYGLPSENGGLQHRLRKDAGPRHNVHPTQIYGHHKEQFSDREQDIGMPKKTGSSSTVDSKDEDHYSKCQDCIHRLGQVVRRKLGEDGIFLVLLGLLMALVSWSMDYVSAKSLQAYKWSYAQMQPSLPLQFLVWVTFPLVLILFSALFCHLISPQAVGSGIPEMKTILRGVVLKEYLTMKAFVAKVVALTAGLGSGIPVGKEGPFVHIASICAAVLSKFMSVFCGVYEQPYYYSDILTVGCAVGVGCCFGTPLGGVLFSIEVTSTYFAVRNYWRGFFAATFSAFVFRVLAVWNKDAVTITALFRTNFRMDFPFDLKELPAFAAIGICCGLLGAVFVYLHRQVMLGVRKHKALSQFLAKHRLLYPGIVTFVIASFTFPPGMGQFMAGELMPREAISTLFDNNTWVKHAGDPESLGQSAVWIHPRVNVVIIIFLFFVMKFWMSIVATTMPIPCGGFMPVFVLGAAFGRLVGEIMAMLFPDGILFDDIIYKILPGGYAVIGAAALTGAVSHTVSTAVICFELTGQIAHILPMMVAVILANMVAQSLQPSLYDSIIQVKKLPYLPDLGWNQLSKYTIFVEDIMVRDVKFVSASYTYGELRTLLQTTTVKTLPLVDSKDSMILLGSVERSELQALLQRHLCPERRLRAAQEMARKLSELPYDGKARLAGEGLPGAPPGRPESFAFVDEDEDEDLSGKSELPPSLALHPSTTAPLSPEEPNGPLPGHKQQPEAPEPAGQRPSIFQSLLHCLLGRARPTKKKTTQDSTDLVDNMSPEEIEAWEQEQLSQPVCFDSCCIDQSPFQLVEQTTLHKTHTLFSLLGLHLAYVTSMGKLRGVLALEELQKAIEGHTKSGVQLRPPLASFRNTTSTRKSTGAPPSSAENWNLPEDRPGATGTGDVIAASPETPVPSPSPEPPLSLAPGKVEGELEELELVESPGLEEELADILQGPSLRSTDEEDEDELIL

SMILES	ΔV½ (human CIC-1 channels) [mV]	change in twitch peaks (Lewis rats)	activation at 50 µM [1] [%]	Kd (CIC-1 ion channels) [µM]
C[C@H](Oc1ccc(Br)cc1C1CC1)C(=O)O [Compound A-2, (2S)-2-(4-bromo-2-cyclopropylphenoxy)propanoic acid]	9.2	no significant change	–	–
CC(C)[C@H](Oc1ccc(Br)cc1)C(=O)O [Compound C22, (2S)-2-(4-bromophenoxy)-3methylbutanoic acid]	–	–	16	4.1

Reference: patent US20190183812A1, “Compounds For The Treatment Of Neuromuscular Disorders” (NMD PHARMA A/S, priority 2017, published 2019)
